In ChEMBL document CHEMBL1201862, “PubChem BioAssay data set” (2004):
The source made the active and inactive calls.

Tests used:
[1] = target: SWI/SNF-related matrix-associated actin-dependent regulator of chromatin subfamily A member 2 (Homo sapiens, UniProt P51531); experiment: Luminescence-based cell-based high throughput dose response assay to identify activators of the function of SWI/SNF related, matrix associated, actin dependent regulator of chromatin, subfamily a, member 2 (SMARCA2, BRM).; assay type: functional
Sequence of SWI/SNF-related matrix-associated actin-dependent regulator of chromatin subfamily A member 2 (P51531 whole entry): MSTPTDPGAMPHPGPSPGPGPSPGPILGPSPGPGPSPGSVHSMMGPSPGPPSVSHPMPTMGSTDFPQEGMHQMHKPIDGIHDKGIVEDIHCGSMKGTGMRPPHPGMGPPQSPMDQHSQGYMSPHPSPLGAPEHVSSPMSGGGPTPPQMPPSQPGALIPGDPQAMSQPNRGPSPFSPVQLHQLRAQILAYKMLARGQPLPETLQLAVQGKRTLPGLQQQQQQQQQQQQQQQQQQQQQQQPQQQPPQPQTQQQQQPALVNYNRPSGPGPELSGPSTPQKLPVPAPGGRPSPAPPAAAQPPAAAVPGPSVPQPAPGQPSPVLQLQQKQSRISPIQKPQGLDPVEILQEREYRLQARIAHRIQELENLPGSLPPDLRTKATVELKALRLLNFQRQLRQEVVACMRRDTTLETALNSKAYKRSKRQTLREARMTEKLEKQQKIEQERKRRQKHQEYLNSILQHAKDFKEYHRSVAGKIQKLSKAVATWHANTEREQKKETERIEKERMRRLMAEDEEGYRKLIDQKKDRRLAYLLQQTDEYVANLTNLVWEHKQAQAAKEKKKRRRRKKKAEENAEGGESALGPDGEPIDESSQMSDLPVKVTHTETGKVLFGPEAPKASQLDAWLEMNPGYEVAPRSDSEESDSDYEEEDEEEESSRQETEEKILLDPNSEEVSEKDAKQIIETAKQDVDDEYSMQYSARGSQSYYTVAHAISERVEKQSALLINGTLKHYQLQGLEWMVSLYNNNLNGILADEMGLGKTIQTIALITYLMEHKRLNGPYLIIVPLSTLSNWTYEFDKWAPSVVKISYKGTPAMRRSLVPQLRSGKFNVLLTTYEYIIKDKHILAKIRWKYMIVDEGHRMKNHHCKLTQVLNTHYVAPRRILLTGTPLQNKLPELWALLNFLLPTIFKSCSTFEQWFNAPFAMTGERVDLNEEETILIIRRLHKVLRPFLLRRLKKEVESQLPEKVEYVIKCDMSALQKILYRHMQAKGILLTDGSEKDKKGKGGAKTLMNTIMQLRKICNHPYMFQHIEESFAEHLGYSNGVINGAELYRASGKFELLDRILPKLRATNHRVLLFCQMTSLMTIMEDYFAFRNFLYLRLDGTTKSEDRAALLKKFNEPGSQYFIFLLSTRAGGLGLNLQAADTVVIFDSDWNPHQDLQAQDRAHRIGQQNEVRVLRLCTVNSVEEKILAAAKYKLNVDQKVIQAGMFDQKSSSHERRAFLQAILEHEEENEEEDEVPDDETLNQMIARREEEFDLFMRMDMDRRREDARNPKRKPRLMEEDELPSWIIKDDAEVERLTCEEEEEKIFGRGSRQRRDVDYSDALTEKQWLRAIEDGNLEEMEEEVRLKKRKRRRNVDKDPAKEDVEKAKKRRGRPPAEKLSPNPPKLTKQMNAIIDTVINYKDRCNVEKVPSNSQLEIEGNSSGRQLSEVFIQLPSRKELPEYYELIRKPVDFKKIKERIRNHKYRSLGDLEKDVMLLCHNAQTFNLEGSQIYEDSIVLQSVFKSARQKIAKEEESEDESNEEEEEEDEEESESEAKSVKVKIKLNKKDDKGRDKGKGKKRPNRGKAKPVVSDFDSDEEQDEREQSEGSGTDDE

[2] = Counterscreen for activators of the function of SWI/SNF related, matrix associated, actin dependent regulator of chromatin, subfamily a, member 2 (SMARCA2, BRM): Luminescence-based cell-based high throughput dose response assay to identify non-selective compounds using the VP16 reporter assay.; assay type: functional
[3] = viability inhibitors of stage V gametocytes – luminescence, dose response (AID 1117278); assay type: functional, cell-based;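 further: gametocytes exposed to compound for 24 hours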
[4] = viability loss in human Jurkat cells – cell-based, luminescence, cytotoxicity control for P. falciparum gametocyte viability project, dose response (AID 1117277); assay type: functional;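 further: potency reflects loss of cellular ATP meaning fewer viable cells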
[5] = HIV-1 Vif–A3G interaction blockers – biochemical, TR-FRET, GST-Vif 1-94, biotin-A3G peptide, dose response retest, primary screen (AID 1117319); assay type: functional;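 further: TR-FRET signal of purified GST-Vif binding a biotinylated A3G peptide; inhibitors lower the FRET signal by blocking Vif and A3G binding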
[6] = target: T1, Bcl-2-related protein A1 (Mus musculus, UniProt Q07440); assay type: functional;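 further: confirmatory dose–response counterscreen on Bfl-1, used to check hits from a UBC13 polyubiquitin inhibitor campaign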
T1 sequence (Q07440 whole entry): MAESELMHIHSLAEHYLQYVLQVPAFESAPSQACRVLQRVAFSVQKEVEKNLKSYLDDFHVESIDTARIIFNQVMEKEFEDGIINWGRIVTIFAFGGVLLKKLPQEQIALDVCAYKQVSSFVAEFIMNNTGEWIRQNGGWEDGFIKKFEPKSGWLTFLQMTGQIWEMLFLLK

[7] = target: T2, Ubiquitin-conjugating enzyme E2 N (Homo sapiens, UniProt P61088); assay type: functional;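 further: Dose-response confirmation in a TR-FRET assay detecting UBC13-driven polyubiquitin chain formation, inhibition measured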
T2 sequence (P61088 whole entry): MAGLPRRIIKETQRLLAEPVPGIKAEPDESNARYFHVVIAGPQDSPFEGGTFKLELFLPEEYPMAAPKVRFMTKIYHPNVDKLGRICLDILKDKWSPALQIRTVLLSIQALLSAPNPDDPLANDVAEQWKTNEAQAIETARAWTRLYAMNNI

[8] = cells
[9] = viability of uninfected HEp-2 cells – cell-based, HTS, cytotoxicity control for RSV inhibitor project, dose response (AID 2410); assay type: functional; details: human respiratory syncytial virus
[10] = target: Voltage-dependent T-type calcium channel subunit alpha-1H (Homo sapiens, UniProt O95180); assay type: functional;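 further: channel activity triggered by adding a high calcium stimulation buffer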
Sequence of Voltage-dependent T-type calcium channel subunit alpha-1H (O95180 whole entry): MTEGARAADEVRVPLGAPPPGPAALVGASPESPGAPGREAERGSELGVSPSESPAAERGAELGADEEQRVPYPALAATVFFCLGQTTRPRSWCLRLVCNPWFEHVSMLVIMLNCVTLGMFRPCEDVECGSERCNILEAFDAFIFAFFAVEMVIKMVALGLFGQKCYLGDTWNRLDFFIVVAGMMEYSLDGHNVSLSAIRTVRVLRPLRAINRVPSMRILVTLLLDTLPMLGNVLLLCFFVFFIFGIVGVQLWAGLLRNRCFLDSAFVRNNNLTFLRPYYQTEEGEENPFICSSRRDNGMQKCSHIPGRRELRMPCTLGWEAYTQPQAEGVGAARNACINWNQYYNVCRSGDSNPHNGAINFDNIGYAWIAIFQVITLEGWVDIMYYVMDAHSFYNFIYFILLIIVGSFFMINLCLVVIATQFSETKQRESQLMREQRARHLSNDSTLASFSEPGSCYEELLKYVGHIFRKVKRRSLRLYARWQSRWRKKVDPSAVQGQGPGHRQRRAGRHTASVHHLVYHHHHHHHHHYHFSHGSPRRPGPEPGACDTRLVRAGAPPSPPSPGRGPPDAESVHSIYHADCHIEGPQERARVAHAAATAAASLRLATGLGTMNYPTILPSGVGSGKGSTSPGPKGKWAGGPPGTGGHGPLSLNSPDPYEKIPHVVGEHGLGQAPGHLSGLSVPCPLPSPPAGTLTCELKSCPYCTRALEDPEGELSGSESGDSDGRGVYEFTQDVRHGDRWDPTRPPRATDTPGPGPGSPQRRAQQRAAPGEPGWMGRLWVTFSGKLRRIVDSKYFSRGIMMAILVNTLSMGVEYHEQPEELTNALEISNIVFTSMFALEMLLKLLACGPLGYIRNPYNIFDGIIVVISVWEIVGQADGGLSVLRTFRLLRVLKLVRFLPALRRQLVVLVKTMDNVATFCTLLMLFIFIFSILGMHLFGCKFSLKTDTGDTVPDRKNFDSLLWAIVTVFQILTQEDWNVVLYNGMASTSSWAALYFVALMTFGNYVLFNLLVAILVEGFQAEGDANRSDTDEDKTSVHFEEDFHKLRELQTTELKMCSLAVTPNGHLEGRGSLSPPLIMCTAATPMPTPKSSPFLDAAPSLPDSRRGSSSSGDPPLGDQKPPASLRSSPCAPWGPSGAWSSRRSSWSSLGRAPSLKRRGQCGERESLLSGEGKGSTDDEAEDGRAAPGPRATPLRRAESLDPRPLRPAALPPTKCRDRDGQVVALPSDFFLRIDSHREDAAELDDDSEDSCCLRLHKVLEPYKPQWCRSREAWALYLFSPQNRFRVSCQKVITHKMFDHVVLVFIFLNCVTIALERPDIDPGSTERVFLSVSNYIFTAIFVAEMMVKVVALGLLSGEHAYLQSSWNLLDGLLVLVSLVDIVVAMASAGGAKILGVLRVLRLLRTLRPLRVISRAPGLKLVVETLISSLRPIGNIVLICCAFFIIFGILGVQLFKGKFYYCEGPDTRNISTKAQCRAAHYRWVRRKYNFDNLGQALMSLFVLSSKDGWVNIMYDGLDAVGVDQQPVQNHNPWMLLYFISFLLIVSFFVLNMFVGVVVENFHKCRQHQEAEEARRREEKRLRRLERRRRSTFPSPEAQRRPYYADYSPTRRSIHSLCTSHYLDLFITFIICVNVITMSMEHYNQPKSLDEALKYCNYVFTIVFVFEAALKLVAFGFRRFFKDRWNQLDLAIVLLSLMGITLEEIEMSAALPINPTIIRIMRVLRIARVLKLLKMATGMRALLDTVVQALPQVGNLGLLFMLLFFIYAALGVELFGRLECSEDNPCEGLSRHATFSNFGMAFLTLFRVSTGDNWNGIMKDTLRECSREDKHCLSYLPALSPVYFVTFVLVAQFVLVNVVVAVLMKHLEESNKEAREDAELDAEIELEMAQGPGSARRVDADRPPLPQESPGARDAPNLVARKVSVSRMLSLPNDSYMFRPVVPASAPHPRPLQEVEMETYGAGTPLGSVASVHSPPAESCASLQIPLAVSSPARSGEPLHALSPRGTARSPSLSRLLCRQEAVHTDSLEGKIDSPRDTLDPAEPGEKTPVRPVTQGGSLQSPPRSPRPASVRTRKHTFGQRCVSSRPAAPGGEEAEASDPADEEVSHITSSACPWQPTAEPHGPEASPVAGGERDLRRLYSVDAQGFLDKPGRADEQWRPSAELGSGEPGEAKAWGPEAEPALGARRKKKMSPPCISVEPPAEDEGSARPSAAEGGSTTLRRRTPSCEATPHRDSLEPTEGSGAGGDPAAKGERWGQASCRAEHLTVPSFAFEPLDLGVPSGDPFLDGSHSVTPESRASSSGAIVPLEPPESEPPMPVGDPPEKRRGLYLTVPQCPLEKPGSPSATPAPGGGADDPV

[11] = target: Eukaryotic translation initiation factor 4E (Mus musculus, UniProt P63073); experiment: blockers of eIF4G binding by eIF4E – biochemical, TR-FRET, dose response (AID 855); assay type: functional;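 further: potency for disrupting eIF4E binding to eIF4GI seen as loss of FRET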
Sequence of Eukaryotic translation initiation factor 4E (P63073 whole entry): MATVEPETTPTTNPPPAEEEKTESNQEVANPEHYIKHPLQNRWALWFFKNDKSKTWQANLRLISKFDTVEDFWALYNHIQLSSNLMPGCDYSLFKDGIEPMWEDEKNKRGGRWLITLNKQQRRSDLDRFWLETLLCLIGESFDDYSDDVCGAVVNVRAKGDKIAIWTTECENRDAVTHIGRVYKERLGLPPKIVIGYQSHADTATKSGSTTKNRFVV

[12] = target: T3, Fructose-bisphosphate aldolase (Mycobacterium tuberculosis, UniProt P9WQA3); experiment: Fluorescence-based biochemical high throughput dose response assay for inhibitors of the fructose-bisphosphate aldolase (FBA) of M. tuberculosis.; assay type: functional
T3 sequence (P9WQA3 whole entry): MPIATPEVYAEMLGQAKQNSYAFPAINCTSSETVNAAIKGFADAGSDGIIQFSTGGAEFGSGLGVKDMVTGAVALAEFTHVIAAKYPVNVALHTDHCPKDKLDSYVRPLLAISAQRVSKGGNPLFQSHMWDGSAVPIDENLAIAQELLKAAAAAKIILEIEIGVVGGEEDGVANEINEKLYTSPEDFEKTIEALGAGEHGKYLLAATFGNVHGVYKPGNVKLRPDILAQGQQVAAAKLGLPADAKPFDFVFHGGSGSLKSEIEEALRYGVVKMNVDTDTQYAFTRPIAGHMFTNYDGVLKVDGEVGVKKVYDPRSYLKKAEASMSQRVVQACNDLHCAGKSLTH

[13] = tested on: Vero; experiment: cells; assay type: functional, cell-based; details: Chlorocebus sabaeus
[14] = target: T4, Carboxy-terminal domain RNA polymerase II polypeptide A small phosphatase 1 (Homo sapiens, UniProt Q9GZU7); experiment: CTDSP1 inhibitors, concentration-response, biochemical, absorbance readout, ultra-high-throughput screen actives (AID 540297); assay type: functional
T4 sequence (Q9GZU7 whole entry): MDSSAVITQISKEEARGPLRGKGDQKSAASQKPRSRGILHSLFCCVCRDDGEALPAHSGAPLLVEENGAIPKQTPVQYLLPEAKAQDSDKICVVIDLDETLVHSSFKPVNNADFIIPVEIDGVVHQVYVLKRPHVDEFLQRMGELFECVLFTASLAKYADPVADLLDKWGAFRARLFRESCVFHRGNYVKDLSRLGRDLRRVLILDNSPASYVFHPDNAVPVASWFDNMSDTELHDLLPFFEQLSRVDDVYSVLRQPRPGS

[15] = target: T5, Small ubiquitin-related modifier 1 (Homo sapiens, UniProt P63165); experiment: SUMO1 protein-protein binding blockers, potency – biochemical, FRET, dose response (AID 624383); assay type: functional; details: read-out: IC50_Mean
T5 sequence (P63165 whole entry): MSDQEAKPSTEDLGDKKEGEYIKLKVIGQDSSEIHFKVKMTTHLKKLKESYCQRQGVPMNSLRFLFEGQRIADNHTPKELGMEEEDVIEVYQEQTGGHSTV

[16] = target: T5, Small ubiquitin-related modifier 1; experiment: SUMO1 protein interaction blockers, potency – biochemical, fluorescence polarization, uHTS hits, dose response (AID 624382); assay type: functional; details: read-out: IC50_Mean
[17] = target: T6, Protein Tat (Human immunodeficiency virus type 1 group M subtype B (isolate HXB2)(HIV-1), UniProt P04608); assay type: functional;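 further: tat binding to TAR RNA read out by fluorescence polarization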
T6 sequence (P04608 whole entry): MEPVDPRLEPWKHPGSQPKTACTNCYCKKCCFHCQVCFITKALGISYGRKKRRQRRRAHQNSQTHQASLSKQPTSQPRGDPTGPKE

[18] = target: DNA dC->dU-editing enzyme APOBEC-3A (Homo sapiens, UniProt P31941); experiment: Dose Response confirmation of small molecule APOBEC3A DNA Deaminase Inhibitors via a fluorescence-based single-stranded DNA deaminase assay. [Related pubchem assays (depositor defined):AID493011, AID493024]; assay type: functional
Sequence of DNA dC->dU-editing enzyme APOBEC-3A (P31941 whole entry, the tested form may be a part): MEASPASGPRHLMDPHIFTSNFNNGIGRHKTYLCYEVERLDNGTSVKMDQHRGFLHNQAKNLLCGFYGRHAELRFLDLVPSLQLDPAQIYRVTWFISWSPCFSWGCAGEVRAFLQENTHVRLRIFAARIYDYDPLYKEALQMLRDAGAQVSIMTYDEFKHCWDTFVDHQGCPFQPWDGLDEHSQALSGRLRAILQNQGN

[19] = target: T7, RNA-binding protein pos-1 (Caenorhabditis elegans, UniProt G5EF15); experiment: disruptors of C. elegans POS-1 RNA interaction – biochemical, fluorescence polarization, dose response (AID 1964);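 further: purified POS-1 fused to maltose binding protein made in E. coli; potency of compounds blocking POS-1 binding to fluorescent RNA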
T7 sequence (G5EF15 whole entry): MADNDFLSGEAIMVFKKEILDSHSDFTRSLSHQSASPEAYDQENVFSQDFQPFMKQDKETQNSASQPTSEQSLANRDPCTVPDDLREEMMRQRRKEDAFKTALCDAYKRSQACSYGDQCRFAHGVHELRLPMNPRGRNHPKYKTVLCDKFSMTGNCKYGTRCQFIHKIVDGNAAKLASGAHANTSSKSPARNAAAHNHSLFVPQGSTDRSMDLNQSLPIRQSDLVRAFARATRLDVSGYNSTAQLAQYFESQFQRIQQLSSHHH

[20] = target: DNA dC->dU-editing enzyme APOBEC-3G (Homo sapiens, UniProt Q9HC16); assay type: functional;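 further: Dose-response counterscreen measuring inhibition of APOBEC3G DNA deaminase activity, run while confirming APOBEC3A inhibitors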
[21] = target: T8, Zinc finger protein mex-5 (Caenorhabditis elegans, UniProt Q9XUB2); experiment: potency of MEX-5 RNA-binding blockers – biochemical, C. elegans, fluorescence polarization, dose response (AID 1960)
T8 sequence (Q9XUB2 whole entry): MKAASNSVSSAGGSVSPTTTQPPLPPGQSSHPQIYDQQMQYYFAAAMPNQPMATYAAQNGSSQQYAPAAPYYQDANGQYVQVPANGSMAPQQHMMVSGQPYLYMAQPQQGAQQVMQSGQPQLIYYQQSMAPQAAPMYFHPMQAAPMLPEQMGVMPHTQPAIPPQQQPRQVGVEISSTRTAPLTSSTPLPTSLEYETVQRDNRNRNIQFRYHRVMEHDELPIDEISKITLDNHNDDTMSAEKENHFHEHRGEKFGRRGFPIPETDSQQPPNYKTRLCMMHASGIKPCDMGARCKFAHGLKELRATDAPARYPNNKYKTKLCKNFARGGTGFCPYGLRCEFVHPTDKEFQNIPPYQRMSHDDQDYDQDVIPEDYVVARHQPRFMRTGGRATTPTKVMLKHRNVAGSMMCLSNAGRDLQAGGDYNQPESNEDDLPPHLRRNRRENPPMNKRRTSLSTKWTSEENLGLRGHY

[22] = target: Large T antigen (Simian virus 40, UniProt P03070); assay type: functional, Betapolyomavirus macacae;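 further: Confirmatory-stage PubChem screen for compounds that inhibit SV40 T antigen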
[23] = target: T9, Estrogen receptor beta (Homo sapiens, UniProt Q92731); experiment: blockers of SRC-3 recruitment to ERβ – biochemical, ELISA, streptavidin-HRP readout, orthogonal assay, confirmation (AID 1060)
T9 sequence (Q92731 whole entry): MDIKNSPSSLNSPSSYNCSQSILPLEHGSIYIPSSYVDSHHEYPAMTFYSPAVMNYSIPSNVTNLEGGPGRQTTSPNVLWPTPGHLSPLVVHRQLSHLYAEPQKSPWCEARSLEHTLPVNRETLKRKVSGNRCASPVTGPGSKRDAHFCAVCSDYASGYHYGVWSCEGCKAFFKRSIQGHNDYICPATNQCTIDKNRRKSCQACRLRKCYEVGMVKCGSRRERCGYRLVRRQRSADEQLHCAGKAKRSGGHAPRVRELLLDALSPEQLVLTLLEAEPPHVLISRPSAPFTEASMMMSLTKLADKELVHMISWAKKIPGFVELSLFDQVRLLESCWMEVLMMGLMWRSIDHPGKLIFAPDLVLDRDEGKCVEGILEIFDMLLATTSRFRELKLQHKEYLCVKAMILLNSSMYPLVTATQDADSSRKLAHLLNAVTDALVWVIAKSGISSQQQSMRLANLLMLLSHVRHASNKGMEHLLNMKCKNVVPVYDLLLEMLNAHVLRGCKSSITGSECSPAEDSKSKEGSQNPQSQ

[24] = target: T9, Estrogen receptor beta
[25] = non-specific 3'UTR reporter inhibition in Clone20-Shn3RL – cell-based, Renilla luciferase, cherry-picked, counter-screen for Shn3 inhibitor project, dose response (AID 624133); assay type: functional
[26] = reduction of Shn3 3'UTR-driven luciferase in osteoblasts – cell-based, Clone20 osteoblasts, firefly luciferase, cherry-picked, dose response (AID 624132); assay type: functional;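 further: firefly luciferase luminescence from reporter carrying the Shn3 3'UTR in osteoblasts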

## CC(=O)c1ccc(-c2cnc3c(NC=O)cc(-c4ccc(N5CCN(C)CC5)cc4)cn23)cc1
[1]
  EC50: 56 µM (inactive)
[2]
  EC50: > 91.2 µM (inactive)

## Cc1cccc(OCCN2C(=O)c3ccccc3C2=O)c1
[3]
  IC50: > 109 µM (inactive)
[4]
  IC50: > 83.2 µM (inactive)

## CCOc1ccccc1CNCCNC(=O)c1nonc1N
[3]
  IC50: > 109 µM (inactive)
[4]
  IC50: > 83.3 µM (inactive)

## COC(=O)c1sc(NC(=O)c2ccc(Cn3cc(Cl)cn3)o2)c(C#N)c1C
[5]
  IC50: > 100 µM (active)

## N#Cc1ccc(OCC(=O)NNC(=S)NC(=O)C2CC2)cc1
[6]
  IC50: > 20 µM (inactive)
[7]
  IC50: 6.5 µM (active)

## O=S(=O)(c1cccc(-c2csc(-c3ccccc3)n2)c1)N1CCOCC1
[8]
  IC50: 28.4 µM (active)
[9]
  CC50: 37.8 µM (active)

## COCCNC(C)C(=O)C12CC3CC(CC(C3)C1)C2 (stereo not drawn)
[5]
  IC50: > 100 µM (active)

## O=C(CSCC(=O)N1CCN(c2ccccc2)CC1)Nc1nc(-c2ccc(Cl)s2)cs1
[10]
  EC50: 4.28 µM (active)

## COC(=O)CSc1nnc(-c2cccc(NC(=O)c3ccc(C)cc3)c2)n1C
[11]
  IC50: > 64 µM (inactive)

## COc1cc(C(=O)NCc2ccc(C(=O)NCC(OC)OC)cc2)cc(OC)c1OC
[11]
  IC50: 50 µM (inactive)

## Cc1ccc(Nc2nc3ccccc3nc2-n2nc(C)cc2C)cc1
[11]
  IC50: > 64 µM (inactive)

## N=c1c(C(=O)NC2CCCCC2)cc2c(=O)n3ccccc3nc2n1Cc1ccco1
[12]
  IC50: 3.71 µM (active)

## Cc1ccc(Nc2nc(=O)c3cccnc3s2)c(Br)c1
[8]
  IC50: 25 µM (active)
[13]
  IC50: > 25 µM (active)
[9]
  CC50: 22.8 µM (active)

## C=CCN1C(=O)CSc2ccc(C(=O)NCc3ccco3)cc21
[5]
  IC50: > 100 µM (active)

## Cc1nn(Cc2ccc(Cl)c(Cl)c2)c(C)c1NC(=O)c1cc(-c2ccco2)on1
[10]
  EC50: 1.35 µM (active)

## CC1(C(=O)Nc2ccccc2)Cc2c(-c3ccc4c(c3)OCO4)ccnc2O1 (stereo not drawn)
[12]
  IC50: 2.52 µM (active)

## CC1Cc2ccccc2N1C(=O)c1cc2sccc2n1Cc1ccc(F)cc1 (stereo not drawn)
[10]
  EC50: 5.86 µM (active)

## O=C(Cn1cnc2c(oc3ccccc32)c1=O)N1CCCC1
[3]
  IC50: > 109 µM (inactive)
[4]
  IC50: > 83.4 µM (inactive)

## CC(=O)c1ccc(NC(=O)c2cccc(N3C(=O)c4ccccc4C3=O)c2)cc1
[14]
  IC50: 9.44 µM (active)
[15]
  IC50: 3.13 µM (active)
[16]
  IC50: > 66.6 µM (inactive)

## COCCNC(=O)c1ccc(CS(=O)(=O)c2c(Cl)cccc2Cl)o1
[17]
  IC50: > 100 µM (active)

## CCN(CC)C(=O)CSc1nnc(-c2cccc(OC)c2)o1
[1]
  EC50: > 91.1 µM (inactive)
[2]
  EC50: > 91.1 µM (inactive)

## O=C(c1ccc(=O)oc1)N1CCCc2ccccc21
[17]
  IC50: 5.02 µM (inconclusive)

## CSc1nnc(Cn2c(=O)sc3ccccc32)n1-c1cccc(Cl)c1
[8]
  IC50: 8.48 µM (active)
[9]
  CC50: > 50 µM (active)

## CCCC(c1nnnn1CC(=O)OCC)N(Cc1cc2c(C)cc(C)cc2nc1O)C1CCCC1 (stereo not drawn)
[8]
  IC50: 6.29 µM (active)

## Cc1cc(C)nc(SCc2nc3ncccn3c2Br)n1
[12]
  IC50: 1.47 µM (active)

## Cc1cc(C)n(Cc2ccc(Cl)nc2)n1
[3]
  IC50: > 109 µM (inactive)
[4]
  IC50: > 83.3 µM (inactive)

## N#Cc1ccccc1CN1C(=O)S/C(=C/c2cccn2-c2cccc(C(=O)O)c2)C1=O
[18]
  IC50: 14.9 µM (active)
[14]
  IC50: 5.19 µM (active)
[19]
  EC50: > 300 µM (not active)
[20]
  IC50: 37 µM (active)
[17]
  IC50: > 100 µM (active)
[21]
  EC50: > 300 µM (not active)
[22]
  IC50: > 100 µM (active)

## Nc1c(Cl)cc(Cl)cc1C(=O)OCC(=O)NC1CC1
[23]
  IC50: < 0.023 µM (not active)
[24]
  IC50: 26.5 µM (active)

## CC1CCCC(C)N1CC(=O)Nc1sc2c(c1C#N)CCCC2 (stereo not drawn)
[23]
  IC50: 0.0372 µM (not active)

## CS(=O)(=O)c1ccc(C(=O)OCC(=O)N2CCOCC2)cc1[N+](=O)[O-]
[25]
  AC50: 27.9 µM (active)
[1]
  EC50: > 91.2 µM (inactive)
[26]
  AC50: 17.5 µM (active)
[2]
  EC50: > 91.2 µM (inactive)
